Test results from PubChem BioAssay AID2060502 (Molecular Pharmacology Branch, DTP, NCI, 2025).

Test system: 885724-159-R-J1-PDC complex spheroid viability
Experiment: Anticancer human tumor 885724-159-R-J1-PDC patient-derived pancreatic adenocarcinoma cell line growth inhibition [GQUAD]
Details: for IC50: curve of first compound; for viability, T/C: stronger effect = lower value
Method in brief: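 Multi-cell-type spheroids of tumor cells with HUVEC and mesenchymal stem cells, treated with drug combinations. Concentrations descend in half-log steps from near clinical Cmax, or from 10 microM where Cmax is unknown; viability read-out.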

[1] = second compound 0.0316 µM, first compound 0.0316 µM
[2] = second compound 0.0316 µM, first compound 0.1 µM
[3] = second compound 0.0316 µM, first compound 0.316 µM
[4] = second compound 0.0316 µM, first compound 1 µM
[5] = second compound 0.0316 µM, first compound 3.16 µM
[6] = second compound 0.0316 µM, first compound 10 µM
[7] = second compound 0.1 µM, first compound 0.0316 µM
[8] = second compound 0.1 µM, first compound 0.1 µM
[9] = second compound 0.1 µM, first compound 0.316 µM
[10] = second compound 0.1 µM, first compound 1 µM
[11] = second compound 0.1 µM, first compound 3.16 µM
[12] = second compound 0.1 µM, first compound 10 µM
[13] = second compound 0.316 µM, first compound 0.0316 µM
[14] = second compound 0.316 µM, first compound 0.1 µM
[15] = second compound 0.316 µM, first compound 0.316 µM
[16] = second compound 0.316 µM, first compound 1 µM
[17] = second compound 0.316 µM, first compound 3.16 µM
[18] = second compound 0.316 µM, first compound 10 µM
[19] = second compound 1 µM, first compound 0.0316 µM
[20] = second compound 1 µM, first compound 0.1 µM
[21] = second compound 1 µM, first compound 0.316 µM
[22] = second compound 1 µM, first compound 1 µM
[23] = second compound 1 µM, first compound 3.16 µM
[24] = second compound 1 µM, first compound 10 µM
[25] = second compound 3.16 µM, first compound 0.0316 µM
[26] = second compound 3.16 µM, first compound 0.1 µM
[27] = second compound 3.16 µM, first compound 0.316 µM
[28] = second compound 3.16 µM, first compound 1 µM
[29] = second compound 3.16 µM, first compound 3.16 µM
[30] = second compound 3.16 µM, first compound 10 µM
[31] = second compound 10 µM, first compound 0.0316 µM
[32] = second compound 10 µM, first compound 0.1 µM
[33] = second compound 10 µM, first compound 0.316 µM
[34] = second compound 10 µM, first compound 1 µM
[35] = second compound 10 µM, first compound 3.16 µM
[36] = second compound 10 µM, first compound 10 µM
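Note: spheroids exposed to agents for seven days before readout.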
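Throughout, for viability, T/C: percent of vehicle control viability where 100% = DMSO wells.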

In the case of `C#Cc1c(F)ccc2cc(O)cc(-c3ncc4c(N5CC6CCC(C5)N6)nc(OCC56CCCN5CC(F)C6)nc4c3F)c12` (stereo unspecified) + Cc1cnc(CNC(=O)c2c(=O)c3ccc(N4CCCN(C)CC4)nc3n3c2sc2ccccc23)cn1, the IC50 (second compound 0.0316 µM) is reported as 6.01 µM, the IC50 (second compound 0.1 µM) is reported as 6.88 µM and the IC50 (second compound 0.316 µM) is reported as 6.19 µM. For the same compound, the IC50 (second compound 1 µM) was 4.5 µM, the IC50 (second compound 3.16 µM) was 2.33 µM and the IC50 (second compound 10 µM) was 1.28 µM. It also gave a viability, T/C [1] of 91.6%, a viability, T/C [2] of 120% and a viability, T/C [3] of 117%. For the same compound, the viability, T/C [4] was 103%, the viability, T/C [5] was 67% and the viability, T/C [6] was 36.6%. It also gave a viability, T/C [7] of 106%, a viability, T/C [8] of 110% and a viability, T/C [9] of 100%. The viability, T/C [10] was 107%, the viability, T/C [11] was 71.4% and the viability, T/C [12] was 39.7%. The viability, T/C [13] was 110%, the viability, T/C [14] was 100% and the viability, T/C [15] was 90.8%. The viability, T/C [16] was 94.5%, the viability, T/C [17] was 69.5% and the viability, T/C [18] was 35%. For the same compound, the viability, T/C [19] was 92.8%, the viability, T/C [20] was 81.3% and the viability, T/C [21] was 84.2%. For the same compound, the viability, T/C [22] was 75.3%, the viability, T/C [23] was 59.9% and the viability, T/C [24] was 28.4%. It also gave a viability, T/C [25] of 77.3%, a viability, T/C [26] of 70.2% and a viability, T/C [27] of 70%. The viability, T/C [28] was 62.9%, the viability, T/C [29] was 45.3% and the viability, T/C [30] was 19.1%. It also gave a viability, T/C [31] of 61.5%, a viability, T/C [32] of 62.7% and a viability, T/C [33] of 54.6%. It also gave a viability, T/C [34] of 55.8%, a viability, T/C [35] of 36.6% and a viability, T/C [36] of 1.29%.

`C=CCn1c(=O)c2cnc(Nc3ccc(N4CCN(C)CC4)cc3)nc2n1-c1cccc(C(C)(C)O)n1` + Cc1cnc(CNC(=O)c2c(=O)c3ccc(N4CCCN(C)CC4)nc3n3c2sc2ccccc23)cn1 gave an IC50 (second compound 0.0316 µM) of over 10 µM, an IC50 (second compound 0.1 µM) of over 10 µM and an IC50 (second compound 0.316 µM) of over 10 µM. For the same compound, the IC50 (second compound 1 µM) was over 10 µM, the IC50 (second compound 3.16 µM) was over 10 µM and the IC50 (second compound 10 µM) was over 10 µM. The viability, T/C [1] was 105%, the viability, T/C [2] was 106% and the viability, T/C [3] was 100%. It also gave a viability, T/C [4] of 97.1%, a viability, T/C [5] of 78.4% and a viability, T/C [6] of 91.5%. It also gave a viability, T/C [7] of 109%, a viability, T/C [8] of 132% and a viability, T/C [9] of 99.7%. The viability, T/C [10] was 93.9%, the viability, T/C [11] was 85.9% and the viability, T/C [12] was 83.3%. The viability, T/C [13] was 106%, the viability, T/C [14] was 102% and the viability, T/C [15] was 100%. For the same compound, the viability, T/C [16] was 91.1%, the viability, T/C [17] was 89.9% and the viability, T/C [18] was 90%. It also gave a viability, T/C [19] of 100%, a viability, T/C [20] of 78.2% and a viability, T/C [21] of 82.8%. For the same compound, the viability, T/C [22] was 75.3%, the viability, T/C [23] was 79.2% and the viability, T/C [24] was 96.8%. It also gave a viability, T/C [25] of 73.1%, a viability, T/C [26] of 65.4% and a viability, T/C [27] of 69.8%. The viability, T/C [28] was 67.8%, the viability, T/C [29] was 71.5% and the viability, T/C [30] was 69.2%. For the same compound, the viability, T/C [31] was 58.9%, the viability, T/C [32] was 70.4% and the viability, T/C [33] was 56.4%. For the same compound, the viability, T/C [34] was 58.3%, the viability, T/C [35] was 69.8% and the viability, T/C [36] was 62%.

`CC(C)(O)C1CCC(Nc2ccc3ncc(-c4cccc(C(F)(F)F)c4)n3n2)CC1` (stereo unspecified) + Cc1cnc(CNC(=O)c2c(=O)c3ccc(N4CCCN(C)CC4)nc3n3c2sc2ccccc23)cn1 showed an IC50 (second compound 0.0316 µM) of 3.14 µM, an IC50 (second compound 0.1 µM) of 4.18 µM and an IC50 (second compound 0.316 µM) of 3.88 µM. The IC50 (second compound 1 µM) was 2.61 µM, the IC50 (second compound 3.16 µM) was 1.19 µM and the IC50 (second compound 10 µM) was 1.04 µM. It also gave a viability, T/C [1] of 112%, a viability, T/C [2] of 86.4% and a viability, T/C [3] of 93.2%. For the same compound, the viability, T/C [4] was 70.3%, the viability, T/C [5] was 44.2% and the viability, T/C [6] was 40.6%. The viability, T/C [7] was 108%, the viability, T/C [8] was 103% and the viability, T/C [9] was 91.2%. The viability, T/C [10] was 79.1%, the viability, T/C [11] was 45.5% and the viability, T/C [12] was 48.1%. The viability, T/C [13] was 94%, the viability, T/C [14] was 89.9% and the viability, T/C [15] was 79.4%. It also gave a viability, T/C [16] of 71.1%, a viability, T/C [17] of 50.4% and a viability, T/C [18] of 39.9%. For the same compound, the viability, T/C [19] was 88.5%, the viability, T/C [20] was 73.2% and the viability, T/C [21] was 77.2%. The viability, T/C [22] was 67%, the viability, T/C [23] was 45.2% and the viability, T/C [24] was 36.7%. The viability, T/C [25] was 73.8%, the viability, T/C [26] was 65.6% and the viability, T/C [27] was 64.9%. The viability, T/C [28] was 55%, the viability, T/C [29] was 28.4% and the viability, T/C [30] was 11.7%. The viability, T/C [31] was 62%, the viability, T/C [32] was 69.4% and the viability, T/C [33] was 62.5%. For the same compound, the viability, T/C [34] was 51.8%, the viability, T/C [35] was 9.65% and the viability, T/C [36] was 0.29%.
